Source: US11299460B2, “MDM2 inhibitor, preparation method therefor, pharmaceutical composition thereof and use thereof” (SHANGHAI LONGWOOD BIOPHARMACEUTICALS CO., LTD., priority 2018, dated 2022)

Key:
GST-hMDM2 (aa1-188) = molecular target: T1, GST-hMDM2 (aa1-188) (Homo sapiens, UniProt Q00987); assay: Homogeneous time resolved fluorometry (HTRF assay), hMDM2/p53 interaction; assay type: binding; conditions: HTRF analysis; GST-hMDM2 (aa1-188) / biotinylated-p53 (aa1-83)
T1 construct: The amino acid residues 1-188 of human MDM2 were expressed as GST-hMDM2 fusion protein; made in house; host or cells: E. coli
Experimental: Residues 1-83 of human p53 were expressed as avitag <TM>-trxa-6×his fusion protein (biotinlabelled p53) in E. coli. Each protein was separated from cell homogenate by affinity chromatography.
Specifically, 10 μL GST-hMDM2 was incubated with 10 uL diluted compound in 10% DMSO for 20 minutes at room temperature. 20 μL biotinlabelled-p53 was added to the mixture of GST-hMDM2 and then incubated at room temperature for 60 min. A 10 μL detection buffer consisting of SA-XLent, anti-GST cavernous compound antibody and KF was added to the reaction solution consisting of GST-hMDM2, biotinlabelled-p53 and the compound and was placed at room temperature to achieve equilibrium and maintained for more than 4 h. The final concentration of DMSO in the reaction solution was 2%. Time resolved fluorescence were measured on a microplate multi label reader. The inhibition percentage was calculated relative to nutlin-3.

[1] = system: p21 transcripts in SJSA-1 cells; assay: p21 assay (QRT-PCR of p21 transcripts in SJSA-1 cells); assay type: cell-based, human; conditions: Homo sapiens, SJSA-1, 7 h, cell assay (SJSA-1 cell); p21 induction, 7 hours incubation
Description: Inhibition of the interaction between hMDM2 and p53 results in the activation of the p53 pathway via the stabilization and accumulation of p53. P53 activates the transcription of many genes, one of which is p21<WAFT/CIP1>. To evaluate the potency of hMDM2 inhibitors, quantitative reverse transcription polymerase chain reaction (QRT PCR) was used to measure the level of p21 transcripts of compound related cells relative to that of control cells treated with dimethyl sulfoxide (DMSO).
In the first day, SJSA-1 cells were inoculated into 100 μL growth medium (RPMI1640; 10 mM HEPES; 1 mM sodium pyruvate; 1× penicillin streptomycin glutamine (PSQ) and 10% FBS, all reagents were obtained from Invitrogen) at a density of 3×10^4 cells in 96-well cell culture plate. The cells were cultured overnight at 37° C. and 5% CO2 atmosphere.
In the second day, hMDM2 inhibitor was gradient diluted in DMSO(Sigma-Aldrich; St. Louis, Mo.). 5 μl of each compound dilution were added into 245 μl filtered assay medium (RPMI1640, 10% FBS, 10 mM HEPES, 1 mM sodium pyruvate and 1×PSQ). Or the assay was conducted with the presence of 10% human serum or 10% mouse serum, or without serum. Growth medium was removed from inoculated SJSA-1 cell culture plate and replaced by 100 μL assay medium for each well. Then 100 μL culture medium containing diluted inhibitor was added into each well to a final volume 200 μL. The final concentration of the compound was in the range of 0.049 μm-50 μm by dose titration with DMSO as control. The cells were incubated at 37° C. and 5% CO2 for 7 hours with the presence of inhibitor. When incubation was completed, growth medium was removed from cells and the plate was stored at −80° C.
In the third day, giagen BioRobot Universal workstation was used to purify total RNA from SJSA-1 cells treated with inhibitor and DMSO respectively. The purification procedure herein was according to RNeasy96BioRobot8000 test kit provided by Qiagen, Valencia, Calif.
To measure the level of existing p21 transcripts, QRT-PCR was introduced. The levels of p21, housekeeping genes and glyceraldehyde 3-phosphate dehydrogenase (GAPDH) were determined by the total RNA from each inhibitor- or DMSO-treated well by duplicated test. The QRT-PCR reaction was performed on the Applied Biosystems prism 7900ht instrument using the relative quantitative (ΔΔ Ct) method according to the following cycle conditions: 48° C. for 30 minutes, then 95° C. for 10 minutes, and then was 40 cycles consisting of 95° C. for 15 seconds and 60° C. for 1 minute. The data were analyzed by using Applied Biosystems SDS2.2 software, with GAPDH as inner control and DMSO treated samples as calibrators. SDS2.2 software calculated the relative quantification (RQ) or increased fold of p21 level relative to DMSO control for each treated sample. The maximum (100%) p21 induction fold was defined by the maximum value of the fitting curve of the reference compound. The p21 induction fold of each inhibitor dose tested was converted to a value representing the percentage of the maximum value. XLFit software (ID business solutions, Alameda, Calif.) was used to make dose-response curve to calculate the IC50 transit value of each inhibitor tested.

T1 sequence (Q00987 1-188): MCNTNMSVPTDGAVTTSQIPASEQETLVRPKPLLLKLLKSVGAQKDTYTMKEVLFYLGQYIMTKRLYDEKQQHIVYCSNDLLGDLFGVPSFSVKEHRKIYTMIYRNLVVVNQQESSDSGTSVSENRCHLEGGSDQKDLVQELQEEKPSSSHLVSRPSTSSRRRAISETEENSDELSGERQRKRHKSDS

| SMILES | IC50 (GST-hMDM2 (aa1-188)) | IC50 [1] |
| --- | --- | --- |
| COc1cc(NC(=O)C[C@@]2(C)C[C@H](c3cccc(Cl)c3)[C@@H](c3ccc(Cl)cc3)N([C@H](C[S@](=O)(=NC(C)=O)C(C)C)C(C)C)C2=O)ccc1C(=O)O [Compound 042] | < 10 nM | < 1000 nM |
| COc1cc(NC(=O)C[C@@]2(C)C[C@H](c3cccc(Cl)c3)[C@@H](c3ccc(Cl)cc3)N([C@H](CS(=O)(=NC(N)=O)C(C)C)C(C)C)C2=O)ccc1C(=O)O (stereo partly drawn) [Compound 043] | < 10 nM | < 1000 nM |
| CC(C)[C@@H](CS(=O)(=NC(=O)N(C)C)C(C)C)N1C(=O)[C@@](C)(CC(=O)O)C[C@H](c2cccc(Cl)c2)[C@H]1c1ccc(Cl)cc1 (stereo partly drawn) [Compound 045] | < 10 nM | < 1000 nM |
| CC(C)[C@@H](CS(=O)(=NC(=O)N1CCOCC1)C(C)C)N1C(=O)[C@@](C)(CC(=O)O)C[C@H](c2cccc(Cl)c2)[C@H]1c1ccc(Cl)cc1 (stereo partly drawn) [Compound 046] | < 10 nM | < 1000 nM |
| CC(C)[C@@H](CS(=O)(=NC(=O)N1CCCC1)C(C)C)N1C(=O)[C@@](C)(CC(=O)O)C[C@H](c2cccc(Cl)c2)[C@H]1c1ccc(Cl)cc1 (stereo partly drawn) [Compound 047] | < 10 nM | < 1000 nM |
| CCOC(=O)N=S(=O)(C[C@H](C(C)C)N1C(=O)[C@@](C)(CC(=O)O)C[C@H](c2cccc(Cl)c2)[C@H]1c1ccc(Cl)cc1)C(C)C (stereo partly drawn) [Compound 048] | < 10 nM | < 1000 nM |
| COc1cc(NC(=O)C[C@@]2(C)C[C@H](c3cccc(Cl)c3)[C@@H](c3ccc(Cl)cc3)N([C@H](CS(=O)(=NC(=O)N(C)C)C(C)C)C(C)C)C2=O)ccc1C(=O)O (stereo partly drawn) [Compound 049] | < 10 nM | < 1000 nM |
| COc1cc(NC(=O)C[C@@]2(C)C[C@H](c3cccc(Cl)c3)[C@@H](c3ccc(Cl)cc3)N([C@H](CS(=O)(=NC(=O)N3CCOCC3)C(C)C)C(C)C)C2=O)ccc1C(=O)O (stereo partly drawn) [Compound 050] | < 10 nM | < 1000 nM |
| COc1cc(NC(=O)C[C@@]2(C)C[C@H](c3cccc(Cl)c3)[C@@H](c3ccc(Cl)cc3)N([C@H](CS(=O)(=NC(=O)N3CCCC3)C(C)C)C(C)C)C2=O)ccc1C(=O)O (stereo partly drawn) [Compound 051] | < 10 nM | < 1000 nM |
| CCOC(=O)N=S(=O)(C[C@H](C(C)C)N1C(=O)[C@@](C)(CC(=O)Nc2ccc(C(=O)O)c(OC)c2)C[C@H](c2cccc(Cl)c2)[C@H]1c1ccc(Cl)cc1)C(C)C (stereo partly drawn) [Compound 052] | < 10 nM | < 1000 nM |
| COc1cc(C(=O)O)ccc1NC(=O)C[C@@]1(C)C[C@H](c2cccc(Cl)c2)[C@@H](c2ccc(Cl)cc2)N([C@H](C[S@](=O)(=NC(C)=O)C(C)C)C(C)C)C1=O [Compound 053] | < 10 nM | < 1000 nM |
| COc1cc(C(=O)O)ccc1NC(=O)C[C@@]1(C)C[C@H](c2cccc(Cl)c2)[C@@H](c2ccc(Cl)cc2)N([C@H](C[S@](=O)(=NC(N)=O)C(C)C)C(C)C)C1=O [Compound 054] | < 10 nM | < 1000 nM |
